Data published in US20220356174A1, “PYRIDIN-2-ONE COMPOUNDS USEFUL AS SMARCA2 ANTAGONISTS” (Epizyme, Inc., priority 2018, published 2022).

target: T1, FL-SMARCA2 (full-length human SMARCA2 isoform 1) (Homo sapiens, UniProt P51531); experiment: SMARCA2 ATPase activity assay (ADP-Glo, chicken mononucleosome substrate); format: biochemical; details: Table 3a.1; SMARCA2 5 nM, ATP 250 uM, mononucleosome 10 nM
T1 construct: FLAG tag (YKDDDDK) (C); made in house; host or cells: Sf21 insect cells (baculovirus, pFastBacI)
T1 sequence (P51531 with tags, fused parts or gaps): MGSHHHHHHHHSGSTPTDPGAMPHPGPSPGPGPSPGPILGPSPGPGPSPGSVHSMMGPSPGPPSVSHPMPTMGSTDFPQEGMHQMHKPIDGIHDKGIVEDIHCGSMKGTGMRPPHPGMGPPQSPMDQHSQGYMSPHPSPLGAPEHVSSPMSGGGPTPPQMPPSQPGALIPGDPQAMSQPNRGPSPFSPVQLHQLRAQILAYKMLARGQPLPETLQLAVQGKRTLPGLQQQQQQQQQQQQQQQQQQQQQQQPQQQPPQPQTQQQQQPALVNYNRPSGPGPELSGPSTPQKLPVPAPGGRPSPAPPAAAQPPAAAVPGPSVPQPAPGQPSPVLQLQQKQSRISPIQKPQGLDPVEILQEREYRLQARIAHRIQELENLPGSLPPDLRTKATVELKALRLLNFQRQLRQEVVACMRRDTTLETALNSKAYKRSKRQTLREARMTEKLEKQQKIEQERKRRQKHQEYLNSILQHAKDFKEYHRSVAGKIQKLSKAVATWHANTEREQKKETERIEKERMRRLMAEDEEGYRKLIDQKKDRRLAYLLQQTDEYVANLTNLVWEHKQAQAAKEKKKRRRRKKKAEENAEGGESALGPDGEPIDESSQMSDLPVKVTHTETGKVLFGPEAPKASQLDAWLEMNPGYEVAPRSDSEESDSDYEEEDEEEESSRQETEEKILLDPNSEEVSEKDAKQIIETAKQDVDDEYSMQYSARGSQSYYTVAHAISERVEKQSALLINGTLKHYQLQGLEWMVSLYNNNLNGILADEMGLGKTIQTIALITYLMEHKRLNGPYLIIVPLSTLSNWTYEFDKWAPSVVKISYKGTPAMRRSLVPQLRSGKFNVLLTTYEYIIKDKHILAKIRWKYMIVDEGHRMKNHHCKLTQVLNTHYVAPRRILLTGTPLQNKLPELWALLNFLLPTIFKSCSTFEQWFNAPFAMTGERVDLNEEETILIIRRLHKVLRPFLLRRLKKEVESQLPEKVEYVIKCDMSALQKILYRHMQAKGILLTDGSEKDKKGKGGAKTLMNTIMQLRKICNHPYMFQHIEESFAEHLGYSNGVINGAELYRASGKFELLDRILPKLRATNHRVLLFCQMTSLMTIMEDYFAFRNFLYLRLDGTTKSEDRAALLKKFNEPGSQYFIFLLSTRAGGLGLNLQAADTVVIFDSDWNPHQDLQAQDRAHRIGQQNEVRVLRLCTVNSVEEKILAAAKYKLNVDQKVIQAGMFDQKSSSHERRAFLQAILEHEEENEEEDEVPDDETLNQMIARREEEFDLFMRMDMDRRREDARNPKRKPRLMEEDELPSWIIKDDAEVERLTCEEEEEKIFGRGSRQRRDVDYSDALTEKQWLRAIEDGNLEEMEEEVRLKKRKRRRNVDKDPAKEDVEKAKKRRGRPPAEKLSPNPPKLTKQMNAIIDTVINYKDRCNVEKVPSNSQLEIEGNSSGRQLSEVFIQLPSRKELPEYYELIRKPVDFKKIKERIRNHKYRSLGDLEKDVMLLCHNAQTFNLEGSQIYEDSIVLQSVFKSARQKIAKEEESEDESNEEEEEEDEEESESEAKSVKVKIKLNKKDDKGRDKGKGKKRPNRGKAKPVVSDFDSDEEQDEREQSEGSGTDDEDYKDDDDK

Row | Compound | IC50
1 | O=C(Nc1cc(F)c(=O)n(CC(F)F)c1)c1cnc(C(F)(F)F)c(F)c1 [Compound 69a] | 1.53 µM
2 | CN1CCN(C(=O)Nc2cc(F)c(=O)n(CCF)c2)CC1=O [Compound 54a] | > 50 µM
3 | CCN(CC)c1nc2sc(C(=O)Nc3cc(F)c(=O)n(CCF)c3)cc2s1 [Compound 61a] | > 50 µM
4 | CCn1cc(NC(=O)c2cc(C(F)(F)F)ccn2)ccc1=O [Compound 59a] | > 50 µM
5 | CN1CCC(C(=O)Nc2cc(F)c(=O)n(CCF)c2)CC1=O (centres unmarked) [Compound 47a] | > 50 µM
6 | CCn1cc(NC(=O)c2[nH]c3ccccc3c2C)ccc1=O [Compound 18a] | > 50 µM
7 | COc1ccc2cc(C(=O)Nc3cc(F)c(=O)n(CCF)c3)[nH]c2c1 [Compound 65a] | 4.91 µM
8 | CCn1cc(NC(=O)c2cnc3ncccn23)ccc1=O [Compound 23a] | > 50 µM
9 | CCn1cc(NC(=O)c2nc3cc(Cl)c(Cl)cc3[nH]2)ccc1=O [Compound 42a] | 13.2 µM

same assay, conditions: Table 3b.1; SMARCA2 5 nM, ATP 250 uM, mononucleosome 10 nM

Row | Compound | IC50
10 | CCn1cc(NC(=O)[C@H]2CC[C@@H](Cl)C2)ccc1=O [Compound 16b] | > 50 µM
11 | CCn1cc(NC(=O)c2cc(Cl)cc(Cl)c2)ccc1=O [Compound 5b] | > 50 µM
12 | CCn1cc(NC(=O)c2ccc(Cl)c(Cl)c2)ccc1=O [Compound 4b] | 42 µM
13 | NS(=O)(=O)c1ccc(C(=O)Nc2cc(F)c(=O)n(CCF)c2)cc1Cl [Compound 23b] | > 50 µM

same assay, conditions: Table 3c.1; ATPase assay, enzyme 5 nM, ATP 250 uM, chicken mononucleosome 10 nM, 30 min preincubation

Row | IC50 | Compound
14 | 24.1 µM | O=C(Nc1cc(F)c(=O)n(CC(F)F)c1)c1nsc(Cl)n1 [Compound 76c]
15 | 0.0508 µM | COc1nc(C#Cc2cc(C(=O)Nc3cc(F)c(=O)n(CC(F)F)c3)sc2Cl)cs1 [Compound 107c]
16 | > 50 µM | O=C(Nc1cc(-c2cn[nH]c2)c(=O)n(CC(F)F)c1)c1cc(Cl)c(C(F)(F)F)s1 [Compound 110c]
17 | 11.3 µM | O=C(Nc1cc(F)c(=O)n(CC(F)F)c1)c1cc(CC(F)(F)F)c(Cl)s1 [Compound 24c]
18 | > 50 µM | O=C(Nc1cc(F)c(=O)n(CC(F)F)c1)c1cc(C2COC2)cs1 [Compound 36c]

Second part, the compound before the results:

Row | Compound | IC50
19 | C[S+]([O-])c1cc(NC(=O)c2cc(F)c(Cl)s2)cn(CC(F)F)c1=O (centres unmarked) [Compound 8c] | > 50 µM
20 | O=C(Nc1cc(-c2cn[nH]c2)c(=O)n(CC(F)F)c1)c1sc(C(F)(F)F)cc1Cl [Compound 20c] | > 50 µM
21 | O=C(Nc1cc(F)c(=O)n(CC(F)F)c1)[C@H]1CCCN1 [Compound 16c] | > 50 µM

same assay, conditions: Table 3.1; ATPase assay, enzyme 5 nM, ATP 250 uM, chicken mononucleosome 10 nM, 30 min preincubation

Row | Compound | IC50
22 | CCn1cc(NC(=O)c2ccc(CN(C)C)s2)ccc1=O [Compound 88] | > 50 µM
23 | CCn1cc(NC(=O)c2ccn(C)c2Cl)ccc1=O [Compound 115] | > 50 µM
24 | CCn1cc(NC(=O)c2cc(C)nn2C)ccc1=O [Compound 16] | > 50 µM
25 | Cn1c(C(=O)Nc2ccc(=O)n(CCF)c2)cc(Cl)c1Cl [Compound 58] | 1.3 µM
26 | CCn1cc(NC(=O)c2cc(C#Cc3ccncc3)c(Cl)s2)ccc1=O [Compound 334] | 0.182 µM
27 | O=C(Nc1cc(NCC2CCCN2)c(=O)n(CCF)c1)c1cc(Cl)c(Cl)s1 (centres unmarked) [Compound 268] | 16.7 µM
28 | CCn1cc(NC(=O)c2cc(C#N)c(Cl)s2)ccc1=O [Compound 106] | 0.417 µM
29 | Cn1c(C(=O)Nc2cc(F)c(=O)n(CC(F)(F)F)c2)cnc1C#N [Compound 221] | 1.45 µM
30 | Cn1c(C(=O)Nc2cc(F)c(=O)n(CCF)c2)cc(Cl)c1C#N [Compound 152] | 0.166 µM
31 | CCn1cc(NC(=O)c2nnc(Cl)s2)ccc1=O [Compound 72] | 33.2 µM
32 | Cn1c(C(=O)Nc2cc(Cl)c(=O)n(CC(F)(F)F)c2)cc(Cl)c1Cl [Compound 135] | 0.293 µM
33 | O=C(Nc1cc(F)c(=O)n(CC(F)F)c1)c1cc(-c2nnco2)c(Cl)s1 [Compound 318] | 2.88 µM
34 | O=C(Nc1cc(F)c(=O)n(CCF)c1)c1cnc(NC2CCCC2)s1 [Compound 219] | > 50 µM
35 | O=C(Nc1cc(F)c(=O)n(CCF)c1)c1cnc(OC(F)F)s1 [Compound 269] | 5.19 µM
36 | N#Cc1cc(C(=O)Nc2cc(F)c(=O)n(CCF)c2)oc1Cl [Compound 245] | 2 µM
37 | CCCc1cc(NC(=O)c2cc(Cl)c(Cl)s2)cn(CC)c1=O [Compound 112] | > 50 µM
38 | O=C(Nc1cc(NCCN2CCCC2)c(=O)n(CCF)c1)c1cc(Cl)c(Cl)s1 [Compound 261] | 7.37 µM
39 | CCn1cc(NC(=O)c2cc(C#CCN(C)C)c(Cl)s2)ccc1=O [Compound 286] | 9.49 µM
40 | CCn1cc(NC(=O)c2cnn(C)c2)ccc1=O [Compound 92] | > 50 µM
41 | CNc1ncc(C(=O)Nc2cc(F)c(=O)n(CCF)c2)s1 [Compound 228] | > 50 µM

same assay, conditions: Table 3d.1; ATPase assay, enzyme 5 nM, ATP 250 uM, chicken mononucleosome 10 nM, 30 min preincubation; read-out: FL-SMARCA2 IC>50

Row | Compound | IC50
42 | Cc1cc(=O)n(C)cc1NC(=O)[C@@H]1CCCO[C@H]1c1cn[nH]c1 [Compound 7d] | > 50 µM
43 | CCn1nc(NC(=O)c2cc(Cl)c(Cl)n2C)ccc1=O [Compound 16d] | 16.7 µM
44 | Cc1cc(=O)n(C)cc1NC(=O)C1CCCN(Cc2ccccc2)C1 (centres unmarked) [Compound 4d] | 32 µM
45 | CCn1c(F)c(NC(=O)c2cc(Cl)c(Cl)s2)ccc1=O [Compound 29d] | > 50 µM
46 | O=C(CNCC1CC1)Nc1ccc(=O)n(Cc2ccccc2Cl)c1 [Compound 6d] | 22.4 µM

target: FL-SMARCA4 (Homo sapiens, UniProt P51532); experiment: SMARCA4 ATPase activity assay (ADP-Glo, chicken mononucleosome substrate); details: FL-SMARCA4 IC50
Sequence (P51532 whole entry): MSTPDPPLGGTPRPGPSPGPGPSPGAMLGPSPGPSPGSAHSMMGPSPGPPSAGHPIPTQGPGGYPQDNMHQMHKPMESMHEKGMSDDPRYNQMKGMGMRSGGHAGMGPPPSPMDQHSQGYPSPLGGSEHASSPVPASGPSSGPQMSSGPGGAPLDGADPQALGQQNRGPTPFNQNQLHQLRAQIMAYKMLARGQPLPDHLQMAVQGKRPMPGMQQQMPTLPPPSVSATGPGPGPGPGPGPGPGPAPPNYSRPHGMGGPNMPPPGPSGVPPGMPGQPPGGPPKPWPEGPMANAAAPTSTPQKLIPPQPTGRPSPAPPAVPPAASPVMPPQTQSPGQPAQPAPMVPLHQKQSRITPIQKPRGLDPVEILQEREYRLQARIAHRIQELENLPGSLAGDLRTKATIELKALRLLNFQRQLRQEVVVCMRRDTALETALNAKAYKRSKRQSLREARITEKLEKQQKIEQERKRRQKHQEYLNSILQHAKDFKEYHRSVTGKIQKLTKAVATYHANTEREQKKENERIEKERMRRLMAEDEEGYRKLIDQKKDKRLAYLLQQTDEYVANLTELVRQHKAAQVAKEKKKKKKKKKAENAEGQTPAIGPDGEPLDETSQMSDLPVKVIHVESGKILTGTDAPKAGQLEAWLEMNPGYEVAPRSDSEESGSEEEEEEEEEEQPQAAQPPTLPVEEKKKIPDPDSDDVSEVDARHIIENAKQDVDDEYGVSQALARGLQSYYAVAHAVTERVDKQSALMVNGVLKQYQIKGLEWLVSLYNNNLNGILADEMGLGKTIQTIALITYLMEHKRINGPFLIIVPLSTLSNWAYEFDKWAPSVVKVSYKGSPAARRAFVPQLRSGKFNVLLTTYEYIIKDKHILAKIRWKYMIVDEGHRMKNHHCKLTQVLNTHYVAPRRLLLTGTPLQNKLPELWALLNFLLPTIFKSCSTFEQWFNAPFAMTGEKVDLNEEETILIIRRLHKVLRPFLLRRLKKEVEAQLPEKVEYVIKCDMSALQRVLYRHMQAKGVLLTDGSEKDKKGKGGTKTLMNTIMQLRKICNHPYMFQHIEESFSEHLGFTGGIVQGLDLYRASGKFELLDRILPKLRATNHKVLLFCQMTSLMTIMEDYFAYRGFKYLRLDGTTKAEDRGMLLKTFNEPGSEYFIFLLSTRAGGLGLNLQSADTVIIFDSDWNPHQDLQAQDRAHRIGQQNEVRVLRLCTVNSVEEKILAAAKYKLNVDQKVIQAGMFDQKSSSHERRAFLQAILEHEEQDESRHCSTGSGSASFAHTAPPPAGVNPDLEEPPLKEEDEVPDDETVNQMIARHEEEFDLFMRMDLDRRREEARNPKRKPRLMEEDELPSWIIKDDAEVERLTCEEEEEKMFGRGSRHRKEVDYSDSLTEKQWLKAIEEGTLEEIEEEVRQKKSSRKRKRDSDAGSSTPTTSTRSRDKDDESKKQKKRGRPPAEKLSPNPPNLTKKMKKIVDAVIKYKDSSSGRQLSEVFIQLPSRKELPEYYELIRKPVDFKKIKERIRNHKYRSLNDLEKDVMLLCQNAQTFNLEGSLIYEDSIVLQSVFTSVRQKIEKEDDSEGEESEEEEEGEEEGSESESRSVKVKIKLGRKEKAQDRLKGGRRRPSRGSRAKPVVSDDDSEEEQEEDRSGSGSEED

Row | Compound | IC50
47 | Cc1cc(=O)n(C)cc1NC(=O)[C@@H]1CCCO[C@H]1c1cn[nH]c1 [Compound 7d] | > 50 µM
48 | CCn1nc(NC(=O)c2cc(Cl)c(Cl)n2C)ccc1=O [Compound 16d] | > 50 µM
49 | Cc1cc(=O)n(C)cc1NC(=O)C1CCCN(Cc2ccccc2)C1 (centres unmarked) [Compound 4d] | > 50 µM
50 | CCn1c(F)c(NC(=O)c2cc(Cl)c(Cl)s2)ccc1=O [Compound 29d] | > 50 µM
51 | O=C(CNCC1CC1)Nc1ccc(=O)n(Cc2ccccc2Cl)c1 [Compound 6d] | > 50 µM

same assay, conditions: FL-SMARCA4 IC50, Table 3a.2; SMARCA4 5 nM, ATP 250 uM, mononucleosome 10 nM

Row | Compound | IC50
52 | O=C(Nc1cc(F)c(=O)n(CC(F)F)c1)c1cnc(C(F)(F)F)c(F)c1 [Compound 69a] | 8.48 µM
53 | CN1CCN(C(=O)Nc2cc(F)c(=O)n(CCF)c2)CC1=O [Compound 54a] | > 50 µM
54 | CCN(CC)c1nc2sc(C(=O)Nc3cc(F)c(=O)n(CCF)c3)cc2s1 [Compound 61a] | > 50 µM
55 | CCn1cc(NC(=O)c2cc(C(F)(F)F)ccn2)ccc1=O [Compound 59a] | > 50 µM
56 | CN1CCC(C(=O)Nc2cc(F)c(=O)n(CCF)c2)CC1=O (centres unmarked) [Compound 47a] | > 50 µM
57 | CCn1cc(NC(=O)c2[nH]c3ccccc3c2C)ccc1=O [Compound 18a] | > 50 µM
58 | COc1ccc2cc(C(=O)Nc3cc(F)c(=O)n(CCF)c3)[nH]c2c1 [Compound 65a] | 27 µM
59 | CCn1cc(NC(=O)c2cnc3ncccn23)ccc1=O [Compound 23a] | > 50 µM
60 | CCn1cc(NC(=O)c2nc3cc(Cl)c(Cl)cc3[nH]2)ccc1=O [Compound 42a] | > 50 µM

same assay, conditions: FL-SMARCA4 IC50, Table 3b.2; SMARCA4 5 nM, ATP 250 uM, mononucleosome 10 nM

Row | Compound | IC50
61 | CCn1cc(NC(=O)[C@H]2CC[C@@H](Cl)C2)ccc1=O [Compound 16b] | > 50 µM
62 | CCn1cc(NC(=O)c2cc(Cl)cc(Cl)c2)ccc1=O [Compound 5b] | > 50 µM
63 | CCn1cc(NC(=O)c2ccc(Cl)c(Cl)c2)ccc1=O [Compound 4b] | > 50 µM
64 | NS(=O)(=O)c1ccc(C(=O)Nc2cc(F)c(=O)n(CCF)c2)cc1Cl [Compound 23b] | > 50 µM

same assay, conditions: FL-SMARCA4 IC50, Table 3.2; ATPase assay, enzyme 5 nM, ATP 250 uM, chicken mononucleosome 10 nM, 30 min preincubation

Row | Compound | IC50
65 | CCn1cc(NC(=O)c2ccc(CN(C)C)s2)ccc1=O [Compound 88] | > 50 µM
66 | CCn1cc(NC(=O)c2ccn(C)c2Cl)ccc1=O [Compound 115] | 16.7 µM
67 | CCn1cc(NC(=O)c2cc(C)nn2C)ccc1=O [Compound 16] | > 50 µM
68 | Cn1c(C(=O)Nc2ccc(=O)n(CCF)c2)cc(Cl)c1Cl [Compound 58] | 13.6 µM
69 | CCn1cc(NC(=O)c2cc(C#Cc3ccncc3)c(Cl)s2)ccc1=O [Compound 334] | 0.337 µM
70 | O=C(Nc1cc(NCC2CCCN2)c(=O)n(CCF)c1)c1cc(Cl)c(Cl)s1 (centres unmarked) [Compound 268] | 41.8 µM
71 | CCn1cc(NC(=O)c2cc(C#N)c(Cl)s2)ccc1=O [Compound 106] | 0.838 µM
72 | Cn1c(C(=O)Nc2cc(F)c(=O)n(CC(F)(F)F)c2)cnc1C#N [Compound 221] | 6.28 µM
73 | Cn1c(C(=O)Nc2cc(F)c(=O)n(CCF)c2)cc(Cl)c1C#N [Compound 152] | 0.616 µM
74 | CCn1cc(NC(=O)c2nnc(Cl)s2)ccc1=O [Compound 72] | > 50 µM
75 | Cn1c(C(=O)Nc2cc(Cl)c(=O)n(CC(F)(F)F)c2)cc(Cl)c1Cl [Compound 135] | 2 µM
76 | O=C(Nc1cc(F)c(=O)n(CC(F)F)c1)c1cc(-c2nnco2)c(Cl)s1 [Compound 318] | 13.5 µM
77 | O=C(Nc1cc(F)c(=O)n(CCF)c1)c1cnc(NC2CCCC2)s1 [Compound 219] | > 50 µM
78 | O=C(Nc1cc(F)c(=O)n(CCF)c1)c1cnc(OC(F)F)s1 [Compound 269] | 24.9 µM
79 | N#Cc1cc(C(=O)Nc2cc(F)c(=O)n(CCF)c2)oc1Cl [Compound 245] | 12.1 µM
80 | CCCc1cc(NC(=O)c2cc(Cl)c(Cl)s2)cn(CC)c1=O [Compound 112] | > 50 µM
81 | O=C(Nc1cc(NCCN2CCCC2)c(=O)n(CCF)c1)c1cc(Cl)c(Cl)s1 [Compound 261] | 24.4 µM
82 | CCn1cc(NC(=O)c2cc(C#CCN(C)C)c(Cl)s2)ccc1=O [Compound 286] | 16.7 µM
83 | CCn1cc(NC(=O)c2cnn(C)c2)ccc1=O [Compound 92] | > 50 µM
84 | CNc1ncc(C(=O)Nc2cc(F)c(=O)n(CCF)c2)s1 [Compound 228] | > 50 µM

same assay, conditions: FL-SMARCA4 IC>50, Table 3c.2; ATPase assay, enzyme 5 nM, ATP 250 uM, chicken mononucleosome 10 nM, 30 min preincubation

Row | IC50 | Compound
85 | > 50 µM | O=C(Nc1cc(F)c(=O)n(CC(F)F)c1)c1nsc(Cl)n1 [Compound 76c]
86 | 0.142 µM | COc1nc(C#Cc2cc(C(=O)Nc3cc(F)c(=O)n(CC(F)F)c3)sc2Cl)cs1 [Compound 107c]
87 | > 50 µM | O=C(Nc1cc(-c2cn[nH]c2)c(=O)n(CC(F)F)c1)c1cc(Cl)c(C(F)(F)F)s1 [Compound 110c]
88 | 38.7 µM | O=C(Nc1cc(F)c(=O)n(CC(F)F)c1)c1cc(CC(F)(F)F)c(Cl)s1 [Compound 24c]
89 | > 50 µM | O=C(Nc1cc(F)c(=O)n(CC(F)F)c1)c1cc(C2COC2)cs1 [Compound 36c]

More lines, now with the values behind:

Row | Compound | IC50
90 | C[S+]([O-])c1cc(NC(=O)c2cc(F)c(Cl)s2)cn(CC(F)F)c1=O (centres unmarked) [Compound 8c] | > 50 µM
91 | O=C(Nc1cc(-c2cn[nH]c2)c(=O)n(CC(F)F)c1)c1sc(C(F)(F)F)cc1Cl [Compound 20c] | > 50 µM
92 | O=C(Nc1cc(F)c(=O)n(CC(F)F)c1)[C@H]1CCCN1 [Compound 16c] | > 50 µM
